In patent publication US11154619B2, “Liposomal compositions with light illumination-induced drug release” (Creighton University, priority 2017, dated 2021):
Counter-ions that a name gives are not always drawn.

Test system: WI26-VA4 cells
Assay: Doxorubicin cytotoxicity by MTT cell viability assay, liposomes with or without pre-illumination
Assay type: cell-based
Conditions: total dose of 1 μM; co-incubated with cells for 4 hours; evaluated 48 hours after treatment; no illumination
Experimental: Studies were performed on the fluorescent marker- or drug-loaded liposomes described above diluted to a concentration of 0.2 mM by total lipids with or without the photosensitizer-peptide conjugate described above at 1:80 to 1:5 molar ratio to total lipids. Optionally, samples were also supplied with antioxidants/reducing agents or other additional substances at different concentrations. Samples were either illuminated as described below or kept for the same time period under different control conditions.
Illumination of prepared liposomes with or without photosensitizer-peptide conjugate was mostly preformed using a setup that included a halogen utility lamp, a 2-inch thick flowing water filter to cut infrared irradiation above 950 nm and a red optical cast plastic filter (EdmundOptics) to cut off light irradiation below 620 nm (FIG. 1). […]
Release of the drug substance (doxorubicin hydrochloride) from the liposomes was done by enhancement of its biological action (cytotoxicity) on cultured WI26-VA4 cells after pre-illuminating liposomes with or without photosensitizer-peptide conjugate in comparison to liposomes at the same dose without pre-illumination, co-incubated with cells for 4 hours. The extent of cell death was evaluated 48 hours after treatment using a MTT cell viability assay.

With `COc1cccc2c1C(=O)c1c(O)c3c(c(O)c1C2=O)C[C@@](O)(C(=O)CO)C[C@@H]3O[C@H]1C[C@H](N)[C@H](O)[C@H](C)O1` [doxorubicin hydrochloride] the cell death was “about 60%”.
